In assay [1] the test system is fructose-induced hyperlipidemic rats. The assay can be described thus: Hypotriglyceridemic activity in fructose-induced hyperlipidemic rats. To be noted: fructose-loaded rats, 30 mg/kg p.o. once daily for 7 days; for inhibition in vivo at 30 mg/kg: Rattus norvegicus, po, 168 h, read-out: Reduction in Serum Triglyceride (%). It counts as in vivo, Sprague Dawley rats. Here is the method:
The compounds were tested for a hypotriglyceridemic activity in fructose-induced hyperlipidemic rats in accordance with the method described in Nippon Yakurigaku Zasshi, 92 (3), 175-180 (1988). Sprague Dawley rats were grouped by the ranking method of body weight. Then, instead of drinking water, rats were given 75% fructose aqueous ad libitum for one week, thereby, resulting in the state of hypertriglyceridemia. The compounds of the present invention, suspended in 3% Arabic gum aqueous solution, and a dose of 30 mg/kg was orally administrated once daily for 7 days during the fructose-loading period. The control group of rats were given 3% Arabic gum aqueous solution only. Two hours later of the final administration, the rats were bled from the abdominal aorta to measure serum triglycerides and total cholesterol. The reduction rate (%) of each measurement compared to the control groups was calculated according to the equation indicated in EXAMPLE 4.

Assay [2] concerns Genetically diabetic db/db mice (C57BL/ksJ Jcl-dbm db/db mice). The assay can be described thus: Blood sugar lowering actions in genetically diabetic mice. It counts as in vivo. The following applies: serum glucose vs control group. How it is done: (§1) Genetically diabetic db/db mice (C57BL/ksJ Jcl-dbm db/db mice) older than 8 weeks were grouped depend on their blood sugar levels of the prior measurements in order to divide groups with almost equal mean value of the sugar level. The respective groups of db/db mice were designates as the following groups: the group given the compound of the present invention, the group of troglitazone, and the group given no administrating group. For the compounds of the present invention, two doses: 75 mg/kg and 150 mg/kg, and for troglitazone, a dose of 150 mg/kg were individually given to the mice as a forced oral administration once daily for 14 days successively. These agents were suspended in 3.0% Arabic gum solution for administration. To the control group, only the same volume of 3.0% Arabic gum solution was administered. On the next day of the final administration, each mouse was […] for sampling. The blood samples were subject to serum separation. The glucose level in the serum of each group was measured. Then, a reduction rate in a glucose level (%) compared to the control group was calculated with mean value of each group according to the equation below. […] [formula]

Assay [3] deals with 3T3-L1 preadipocyte cells. Description: Differentiation-inducing actions on adipose cells (oil red-O staining, absorbance at 490 nm). In kind it is cell-based. The following applies: 3T3-L1, oil red-O extract absorbance at 490 nm, ratio to control group (1.0). How it is done: The cloned cell line 3T3-L1 of the preadipocyte cells at the 9-20th generation were used. The cell suspension at a concentration of 2×10^4 cells/ml was added 500 μl/well in a 24 well microplate. Then, the microplates were cultured at 37° C. in the atmosphere of 5% CO2 for 4 days with D-MEM containing 5% inactivated fetal calf serum (hereinafter abbreviated as “FCS D-MEM”). Next, the following procedures were conducted.
(1) To test compound of this invention, 500 μl/well of the following solutions was added to each well:
1) test compound-containing medium (T-MEM) in which the test compound in a stock solution (30 mM in DMSO) was diluted with FCS D-MEM containing 0.1 μM dexamethazone and 100 ng/ml insulin (hereinafter abbreviated as DEX-Ins-FCS D-MEM);
2) FCS-D-MEM; 3) DEX-Ins-FCS D-MEM; 4) 0.1% DMSO-containing DEX-Ins-FCS D-MEM for me control wells.
(2) After above additions were done, the culture plates were incubated at 37° C. in 5% CO2 for 3 days. Then, the same operations as in the procedure (1) were repeated for exchange of the culture medium. The culture plates were incubated at 37° C. in 5% CO2 for further 3 days.
(3) After incubation, the culture medium was removed from the culture plates. Then, the FCS D-MEM was added to the FCS D-MEM-wells, and next the medium prepared for containing 100 ng/ml of insulin with the FCS D-MEM (hereinafter abbreviated as “Ins-FCS D-MEM”) was added at 500 μl/well to the T-MEM wells and DEX-Ins-FCS D-MEM wells. All culture plates were incubated for 4 days.
(4) After incubation, the culture medium was removed. For cell fixation, 500 μl/well of 10% formalin in neutral buffer was added, and left at the room temperature for approximately 20 minutes or longer. Then the formalin solution was removed, and 60% 2-propanol solution was added at 500 μl/well, then quickly removed, and the oil red-O staining solution was added at 250 μl/well. The culture plates were sealed with plate seals, and left at room temperature for 30 minutes or longer. After incubation, the staining solution was removed, and the 60% 2-propanol solution was added at 500 μl/well, and quickly removed. The cells were rinsed with water a few times, and then water drops were flipped away. A cell-lysis buffer was added at 500 μl/well, and the culture plates were sealed with plate seals, and left at 37° C. for 1 hour to extract the pigments. Next, 300 μl/well of the extract solution was transferred at a 96 well micro-plates, and then the absorbance of each extract was measured at wavelength of 490 nm.
The absorbance ratios of the respective test compounds-groups to the control group, the mean absorbance of which was designated as 1.0, are shown in Table 8. Based on the judgement that the absorbance higher than that of the control group indicates a greater differentiation-inducing activity of the test compound, the compounds of the present invention were determined to have the activity to induce differentiation of preadipocytes to adipocytes, resulting in elevating insulin sensitivity of organs. Thereby, this activity would confer the efficacy in the therapy of diabetes.

Assay [4] relates to high cholesterol-fed hamsters. The assay can be described thus: Lipid lowering effects in high cholesterol-fed hamsters. The following applies: Example 9 (Table 12), 15 mg/kg p.o. In kind it is in vivo, Syrian hamsters. An excerpt: According to the method described in Jpn Pharmacol Ther, 23 (suppl 4), s1047-1053 (1995), male Syrian hamstars were fed for 3 weeks with 1% cholesterol 10% coconut oil (W/W) supplemented diet, and thereby, became to be hypercholesterolemia models. Prior to administration of the compounds, under ether anesthesia, the hamsters were bled from the orbital vein for measurement of serum total cholesterol. They were grouped in the manner by which the respective groups had almost equal serum total cholesterol levels. The normal group of hamsters were fed ordinary diet. Thereafter, the compound 1 and bezafibrate were orally administered once daily at doses of 15 (for only compound 1), 30, 60 and 120 mg/kg for 7 days. Even during the treatment period, cholesterol loading was continued. Four hours later of the final administration, the hamsters were bled by cardiac puncture. The total cholesterol and triglycerides in the serum obtained were measured by the enzymatic method. The results are shown in Table 11 (the negative values mean elevation rates.)
The actions of the compounds of the present invention at a dose of 15 mg/kg were measured in the same method as described in EXAMPLE 8.

The subject of another assay is db/db mice. Description: Antihyperlipidemic activities in genetically diabetic mice. In kind it is in vivo. To be noted: 150 mg/kg p.o. once daily for 14 days, serum. Here is the method:
as §1
In the same way as described in EXAMPLE 4, db/db mice were grouped in the manner by which the respective groups had almost equivalent mean blood sugar levels. The compounds 1, 3, 13, 21 and 22 of the present invention, suspended in 3.0% Arabic gum solution, were orally administrated, with a dose of 150 mg/kg, once daily for successive 14 days. The control group of mice were given the vehicle solution only. On the next day of the final administration, each mouse was bled for sampling. The blood was subjected for serum separation, and then subjected to measurements of β-lipoproteins, free fatty acids, and triglycerides. The reduction rate (%) of each measurement compared to the control group was calculated by the equation indicated in EXAMPLE 4. […] (Table 9).

As to `N#CN=C1NC(=O)C(=Cc2ccc(-c3cc4cc(Cl)ccc4o3)cc2)S1` [Compound 14, 2-(N-Cyanoimino)-5-[4-(5-chlorobenzofuran-2-yl)benzylidene]thiazolidin-4-one], the inhibition in vivo at 30 mg/kg in assay [1] was 36%. On to `N#CN=C1NC(=O)/C(=C\c2ccc(C=Cc3ccccc3)cc2)S1.[Na]` [Compound 63, 2-(N-Cyanoimino)-5-[(E)-4-stylylbenzylidene]thiazolidin-4-one Sodium Salt], for which, in assay [2] (75 mg/kg oral once daily for 14 days), the “Reduction in Blood Glucose (%)” value is 32%. With `CC(=Cc1ccccc1)c1ccc(/C=C2/SC(=NC#N)NC2=O)cc1` [Compound 2, 2-(N-Cyanoimino)-5-[(E)-4-(α-methylstyryl)benzylidene]thiazolidin-4-one], in assay [3], the “Absorbance Ratio” value is reported as 1.57. Also, the inhibition in vivo at 30 mg/kg in assay [1] came out at 67%. Moreover, in assay [4], the “Reduction Rate (%) Total cholesterol” value came out at 27% and the “Reduction Rate (%) Triglyceride” value is listed as 57%. For `N#CN=C1NC(=O)C(=Cc2cccc(Oc3ccccc3)c2)S1` [Compound 16, 2-(N-Cyanoimino)-5-(3-phenoxybenzylidene)thiazolidin-4-one], the “Absorbance Ratio” value in assay [3] amounted to 1.18. For the same compound, the inhibition in vivo at 30 mg/kg in assay [1] was determined as 54%.

Take `N#CN=C1NC(=O)C(=Cc2cccc(OCCc3ccccc3)c2)S1` [Compound 12, 2-(N-Cyanoimino)-5-(3-phenethyloxybenzylidene)thiazolidin-4-one]: the “Absorbance Ratio” value in assay [3] is recorded as 1.74. The inhibition in vivo at 30 mg/kg in assay [1] was 59%. In the case of `CC(=Cc1ccc(/C=C2/SC(=NC#N)NC2=O)cc1)c1ccccc1` [Compound 4, 2-(N-Cyanoimino)-5-[(E)-4-(β-methylstyryl)benzylidene]thiazolidin-4-one], the “Absorbance Ratio” value in assay [3] worked out at 2.62. The inhibition in vivo at 30 mg/kg in assay [1] is 42%. For the compound `Cc1ccc(C)c(Oc2ccc(C=C3SC(=NC#N)NC3=O)cc2)c1` [Compound 9, 2-(N-Cyanoimino)-5-[4-(2,5-dimethylphenoxy)benzylidene]thiazolidin-4-one], the inhibition in vivo at 30 mg/kg in assay [1] came out at 49%. Still for that read-out and setting: with `CCC(Oc1ccc(C)cc1)c1ccccc1` (centres unmarked) [Compound 32] the figure was 47%; with `N#CN=C1NC(=O)C(=Cc2ccc(OCc3ccc4c(c3)OCO4)cc2)S1` [Compound 17, 2-(N-Cyanoimino)-5-[4-(1,3-benzodioxole-5-ylmethoxy)benzylidene]thiazolidin-4-one], 37%. In the case of `N#CN=C1NC(=O)C(=Cc2ccc(OCc3ccccc3)cc2)S1` [Compound 13], in assay [3], the “Absorbance Ratio” value came to 2.51. For the same compound, in the assay with db/db mice, the “Reduction Rate (%) Free Fatty Acids” value is given as 38%, the “Reduction Rate (%) Triglycerides” value turned out to be 70% and the “Reduction Rate (%) β-lipoproteins” value came to 65%. The “Reduction in Serum Triglyceride (%)” value in assay [1] stood at 55%. For the compound `N#CN=C1NC(=O)C(=Cc2ccc(OCc3ccc(Cl)cc3)cc2)S1` [Compound 19, 2-(N-Cyanoimino)-5-[4-(4-chlorobenzyloxy)benzylidene]thiazolidin-4-one], the “Absorbance Ratio” value in assay [3] was 1.51. Besides, the inhibition in vivo at 30 mg/kg in assay [1] is 38%. `N#CN=C1NC(=O)C(=Cc2ccc(Oc3ccc(Cl)cc3)cc2)S1` [Compound 6, 2-(N-Cyanoimino)-5-[4-(4-chlorophenoxy)benzylidene]thiazolidine-4-one]: the inhibition in vivo at 30 mg/kg in assay [1] amounted to 84%. With `CC(COc1ccc(C=C2SC(=NC#N)NC2=O)cc1)c1ccccc1` (centres unmarked) [Compound 11, 2-(N-Cyanoimino)-5-[4-(2-phenylpropoxy)benzylidene]thiazolidin-4-one], the inhibition in vivo at 30 mg/kg in assay [1] is 62%. In the case of `N#CN=C1NC(=O)C(=Cc2ccc(OCCCc3ccccc3)cc2)S1` [Compound 5, 2-(N-Cyanoimino)-5-[4-(3-phenylpropoxy)benzylidene]thiazolidin-4-one], the “Absorbance Ratio” value in assay [3] came to 1.87. For `N#CN=C1NC(=O)C(=Cc2ccc(Sc3ccccc3)cc2)S1` [Compound 7, 2-(N-Cyanoimino)-5-(4-phenylthiobenzylidene)thiazolidin-4-one], the “Absorbance Ratio” value in assay [3] is 1.93. Further, in assay [1], the inhibition in vivo at 30 mg/kg was 60%. With `N#CN=C1NC(=O)/C(=C\c2ccc(C=Cc3ccccc3F)cc2)S1` [Compound 8, 2-(N-Cyanoimino)-5-[(E)-4-(2-fluorostyryl)benzylidene]thiazolidin-4-one], in assay [3], the “Absorbance Ratio” value turned out to be 1.95. In assay [1], the inhibition in vivo at 30 mg/kg was 47%. Consider `N#CN=C1NC(=O)C(=Cc2ccccc2OCCc2ccccc2)S1` [Compound 21, 2-(N-Cyanoimino)-5-(2-phenethyloxybenzylidene)thiazolidin-4-one], for which the “Absorbance Ratio” value in assay [3] stood at 2.02. In addition, in the assay on db/db mice, the “Reduction Rate (%) Free Fatty Acids” value was determined as 25%, the “Reduction Rate (%) Triglycerides” value came to 41% and the “Reduction Rate (%) β-lipoproteins” value turned out to be 38%. Further, the inhibition in vivo at 30 mg/kg in assay [1] worked out at 48%. For `Cc1c(C)c2c(c(C)c1O)CCC(C)(COc1ccc(CC3SC(=O)NC3=O)cc1)O2` (centres unmarked) [troglitazone, reference compound], the “Reduction in Blood Glucose (%)” value in assay [2] (150 mg/kg oral once daily for 14 days) is 18%.
